In PubChem BioAssay AID2837 (The Scripps Research Institute Molecular Screening Center, 2010):
Calls of active or inactive are those of the source.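 Rule for the calls: active = IC50 of 10 µM or lower; inactive = IC50 above 10 µM.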

molecular target: Guanyl-specific ribonuclease T1 (Aspergillus oryzae (strain ATCC 42149 / RIB 40)) (UniProt P00651); assay: RNase T1 inhibition potency, counter-screen, late-stage follow-up, counter-screen for TPT1 inhibitor project, biochemical, fluorescence polarization, IC50 (AID 2837); conditions: RNase T1 cleavage of B-U6G-AF
Sequence (P00651 whole entry, looked up): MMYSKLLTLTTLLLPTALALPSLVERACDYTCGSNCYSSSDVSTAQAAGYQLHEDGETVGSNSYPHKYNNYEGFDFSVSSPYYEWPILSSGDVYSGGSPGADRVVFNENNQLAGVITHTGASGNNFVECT

Row | SMILES | IC50
1 | CC1=C(C#N)C(=O)N(C2CCS(=O)(=O)C2)C(=O)/C1=C\c1ccco1 (stereo not given) | > 49.8 µM (inactive)
2 | OC(Cn1cncn1)(Cn1cncn1)c1ccc(F)cc1F | > 49.8 µM (inactive)
3 | O=c1oc2c(O)c(O)cc3c(=O)oc4c(O)c(O)cc1c4c23 | > 49.8 µM (inactive)
4 | Cc1cc(C)n(Cc2ccc(C(=O)NN=Cc3ccc(-c4ccc([N+](=O)[O-])cc4)o3)o2)n1 | inactive
5 | NC(=O)c1cc[n+](CC2=C(C(=O)O)N3C(=O)[C@@H](NC(=O)C(c4ccccc4)S(=O)(=O)O)[C@H]3SC2)cc1 (stereo not given in full) | > 49.8 µM (inactive)
6 | COc1ccc(OC)c(N2C(=O)/C(=C/c3ccco3)C(=O)NC2=S)c1 | inactive
7 | NS(=O)(=O)c1cc(C(=O)NC2CCSc3ccccc32)ccc1Cl (stereo not given) | > 49.8 µM (inactive)
8 | Cc1ccccc1N1C(=O)/C(=C/c2ccco2)C(=O)NC1=S | inactive
9 | Cc1[nH]n(-c2ccc(S(=O)(=O)O)cc2)c(=O)c1N[N-]c1ccc(C2=CC(=O)/C(=N\[N-]c3ccc4c(S(=O)(=O)O)cc(S(=O)(=O)O)c(N)c4c3O)C=C2)cc1O.[Cu+].[Cu+] | > 49.8 µM (inactive)
10 | Cc1ccc(N2C(=O)NC(=O)/C(=C\c3ccc([N+](=O)[O-])o3)C2=O)cc1 | inactive
